Experimental data as given in article PMC9099122 (Clinical and Translational Science, 2022).
Several values for one entry are separate records, joined by “and”; a condition that tells them apart may be missing. Identical values can stand only once. Like-named read-outs stand apart in the source and are kept apart here. Marks after values point to notes of the source that are not given here.

How the values were obtained:
[1] = no reference given; cited from earlier work
[2] = low aqueous solubility and high permeability; cited from earlier work
[3] = type: in vivo, human; conditions: for change in Tmax / change in terminal elimination half-life: day 11 compared to day 1, all subjects; for M:P AUCinf ratio, relative bioavailability point estimate / M:P AUCt ratio, relative bioavailability point estimate: Day 11 vs. day 1; for Cmax, geometric mean (mean, %CV): N = 20
[4] = cited from earlier work
[5] = rabbits, coadministration with verapamil; cited from earlier work
CYP3A4 = conditions: cited from earlier work
P‐gp [6] = conditions: following elagolix 200 mg b.i.d. regimen; cited from earlier work
CYP2C19 [7] = assay: Clinical classification of elagolix as CYP2C19 inhibitor from omeprazole DDI; type: in vivo, human; conditions: elagolix 300 mg b.i.d., FDA criteria for clinical CYP enzyme inhibitors
P‐gp [8] = conditions: in vitro; cited from earlier work
[9] = Elagolix plasma concentrations on day 11 of this study; type: in vivo; conditions: female, human, oral, 300 mg
CYP2C19 [10] = conditions: in vitro; cited from earlier work
CYP3A = conditions: in vitro; cited from earlier work
[11] = day 11 (elagolix 300 mg b.i.d.) vs day 1, all subjects
[12] = Day 1, omeprazole 40 mg (reference)
[13] = Day 11, elagolix 300 mg b.i.d. + omeprazole 40 mg (test)
[14] = Study day 1, omeprazole 40 mg alone
[15] = Study day 11, omeprazole 40 mg + elagolix 300 mg b.i.d.

COc1ccc2[nH]c([S+]([O-])Cc3ncc(C)c(OC)c3C)nc2c1 (stereo not shown) [omeprazole, reference compound]
estimated fraction absorbed and escaping intestinal first pass (fa*fg) [1]: approximately 0.80
Biopharmaceutics Classification System (BCS) class [2]: Class 2
increase in AUCinf (exposure) [3, 11]: 1.8 fold
increase in Cmax [3, 11]: 1.9 fold
change in Tmax [3]: unchanged
change in terminal elimination half-life [3]: unchanged
increase in AUCinf ([3]; day 11 vs day 1, EM subjects): 2 fold
increase in AUCinf ([3]; day 11 vs day 1, IM subjects): 2.6 fold
decrease in AUCinf (exposure) ([3]; day 11 vs day 1, PM subjects): 40%
increase in Cmax ([3]; day 11 vs day 1, PM subjects): 23%
Tmax ([3]; human, plasma, oral, 40 mg, Tmax, individual subjects, three PM subjects, day 1): 8 h
Tmax, individual subjects ([3]; three PM subjects, day 1): 10 h and 2 h
Tmax, individual subjects ([3]; three PM subjects, day 11): 2 h (2×) and 1 h
model-estimated absorption rate constant, higher vs homozygous wild-type ([4]; subjects heterozygous for ABCB1 mutant alleles): 2 fold
model-estimated absorption rate constant, higher vs homozygous wild-type ([4]; subjects homozygous for ABCB1 mutant alleles): 7 fold
increase in AUC [5]: more than 2 fold
increase in Cmax [5]: more than 2 fold

Cc1ncc2n1-c1ccc(Cl)cc1C(c1ccccc1F)=NC2 [midazolam]
reduction in AUC (CYP3A4; with elagolix 150 mg q.d.): 35%
reduction in AUC (CYP3A4; with elagolix 300 mg b.i.d.): 54%

COc1ccc2nc(S(=O)(=O)Cc3ncc(C)c(OC)c3C)[nH]c2c1 [omeprazole sulfone]
M:P AUCinf ratio, central value [3, 12]: 0.825
M:P AUCt ratio, central value [3, 12]: 0.679
M:P AUCinf ratio, central value [3, 13]: 1.028
M:P AUCt ratio, central value [3, 13]: 1.017
M:P AUCinf ratio, relative bioavailability point estimate [3]: 1.246
M:P AUCt ratio, relative bioavailability point estimate [3]: 1.497
change in Cmax after elagolix dosing ([3]; PM subjects): unchanged
RAUCinf, metabolite-to-omeprazole AUCinf ratio, median (minimum–maximum) [3, 14]: 0.85 (0.52–1.1) ^e
RAUCt, metabolite-to-omeprazole AUCt ratio, median (minimum–maximum) [3, 14]: 0.76 (0.13–1.1)
RAUCinf, metabolite-to-omeprazole AUCinf ratio, median (minimum–maximum) [3, 15]: 0.99 (0.71–1.5)
RAUCt, metabolite-to-omeprazole AUCt ratio, median (minimum–maximum) [3, 15]: 0.97 (0.67–1.5)
increase in AUCinf (exposure) [3, 11]: 2.5 fold
increase in Cmax [3, 11]: 2.7 fold
change in Tmax [3]: relatively unchanged
change in terminal elimination half-life [3]: relatively unchanged
increase in exposures ([3]; day 11 vs day 1, EM and IM subjects): ~ 3 fold
increase in AUCinf ([3]; day 11 vs day 1, EM subjects): 2.7 fold
increase in AUCinf ([3]; day 11 vs day 1, IM subjects): 3 fold
increase in metabolite-to-parent (M:P) AUC ratio ([3]; day 11 vs day 1, all subjects): 25%
AUCinf on day 11 lower compared to day 1 ([3]; one PM subject with AUCinf on both days): 40%

COc1ccc2nc([S+]([O-])Cc3ncc(CO)c(OC)c3C)[nH]c2c1 (stereo not shown) [5‐hydroxyomeprazole]
M:P AUCinf ratio, central value [3, 12]: 0.458
M:P AUCt ratio, central value [3, 12]: 0.471
M:P AUCinf ratio, central value [3, 13]: 0.198
M:P AUCt ratio, central value [3, 13]: 0.194
M:P AUCinf ratio, relative bioavailability point estimate [3]: 0.432
M:P AUCt ratio, relative bioavailability point estimate [3]: 0.412
AUCinf, geometric mean (mean, %CV) [3, 14]: 883 (932, 33) ng•h/ml
AUCt, geometric mean (mean, %CV) [3, 14]: 857 (911, 35) ng•h/ml
RAUCinf, metabolite-to-omeprazole AUCinf ratio, median (minimum–maximum) [3, 14]: 0.61 (0.048–2.3) ^c
RAUCt, metabolite-to-omeprazole AUCt ratio, median (minimum–maximum) [3, 14]: 0.65 (0.044–2.1)
Tmax, median (minimum–maximum) [3, 14]: 2.0 (2.0–10) h
t1/2, harmonic mean (pseudo-standard deviation) [3, 14]: 1.88 (0.794) h
Cmax, geometric mean (mean, %CV) [3, 14]: 195 (238, 61) ng/ml
AUCinf, geometric mean (mean, %CV) [3, 15]: 664 (679, 21) ng•h/ml
AUCt, geometric mean (mean, %CV) [3, 15]: 643 (659, 22) ng•h/ml
RAUCinf, metabolite-to-omeprazole AUCinf ratio, median (minimum–maximum) [3, 15]: 0.20 (0.071–0.90)
RAUCt, metabolite-to-omeprazole AUCt ratio, median (minimum–maximum) [3, 15]: 0.20 (0.071–0.84)
Tmax, median (minimum–maximum) [3, 15]: 3.0 (1.0–8.0) h
t1/2, harmonic mean (pseudo-standard deviation) [3, 15]: 1.97 (0.901) h
Cmax, geometric mean (mean, %CV) [3, 15]: 134 (142, 34) ng/ml
change in terminal elimination half-life [3]: unchanged
decrease in AUCinf ([3]; day 11 vs day 1, EM subjects): 23%
decrease in AUCinf ([3]; day 11 vs day 1, IM subjects): 30%
decrease in AUCinf (exposure) ([3]; day 11 vs day 1, PM subjects): 20%
decrease in AUCinf (exposure) ([3]; day 11 vs day 1, all subjects): 25%
decrease in Cmax ([3]; day 11 vs day 1, all subjects): approximately 30%
decrease in metabolite-to-parent (M:P) AUC ratio ([3]; day 11 vs day 1, all subjects): ~ 60%
increase in Tmax ([3]; day 11 vs day 1, all subjects): 1 h

C[C@H]1O[C@@H](O[C@H]2[C@@H](O)C[C@H](O[C@H]3[C@@H](O)C[C@H](O[C@H]4CC[C@@]5(C)[C@H](CC[C@@H]6[C@@H]5C[C@@H](O)[C@]5(C)[C@@H](C7=CC(=O)OC7)CC[C@]65O)C4)O[C@@H]3C)O[C@@H]2C)C[C@H](O)[C@@H]1O [digoxin]
increase in AUC (P‐gp [6]): 26%
increase in Cmax (P‐gp [6]): 71%

COc1cccc(-c2c(C)n(Cc3c(F)cccc3C(F)(F)F)c(=O)n(C[C@H](NCCCC(=O)O)c3ccccc3)c2=O)c1F [elagolix]
clinical CYP2C19 inhibitor classification (CYP2C19 [7]): weak inhibitor
IC50 (P‐gp [8]): 54 µM
Cmax [9]: 1410 ng/mL
Ki (CYP2C19 [10]): 34 µM
kinact (CYP2C19 [10]): 0.029 min⁻¹
CYP3A inducer classification (CYP3A4; from midazolam DDI): weak to moderate inducer
maximum induction (CYP3A): 20 fold
